Laboratory results published in patent US20210198277A1, “AMINE-SUBSTITUTED ARYL OR HETEROARYL COMPOUNDS” (Epizyme, Inc., priority 2016, published 2021).

Key:
[1] = target: T1, EHMT1 (Homo sapiens, UniProt Q9H9B1); experiment: EHMT1 enzyme assay on peptide substrate (EHMT1 PEP); format: biochemical; conditions: Table II; read-out: EHMT1 PEP (IC50 μM)
T1 sequence (Q9H9B1 1-1298): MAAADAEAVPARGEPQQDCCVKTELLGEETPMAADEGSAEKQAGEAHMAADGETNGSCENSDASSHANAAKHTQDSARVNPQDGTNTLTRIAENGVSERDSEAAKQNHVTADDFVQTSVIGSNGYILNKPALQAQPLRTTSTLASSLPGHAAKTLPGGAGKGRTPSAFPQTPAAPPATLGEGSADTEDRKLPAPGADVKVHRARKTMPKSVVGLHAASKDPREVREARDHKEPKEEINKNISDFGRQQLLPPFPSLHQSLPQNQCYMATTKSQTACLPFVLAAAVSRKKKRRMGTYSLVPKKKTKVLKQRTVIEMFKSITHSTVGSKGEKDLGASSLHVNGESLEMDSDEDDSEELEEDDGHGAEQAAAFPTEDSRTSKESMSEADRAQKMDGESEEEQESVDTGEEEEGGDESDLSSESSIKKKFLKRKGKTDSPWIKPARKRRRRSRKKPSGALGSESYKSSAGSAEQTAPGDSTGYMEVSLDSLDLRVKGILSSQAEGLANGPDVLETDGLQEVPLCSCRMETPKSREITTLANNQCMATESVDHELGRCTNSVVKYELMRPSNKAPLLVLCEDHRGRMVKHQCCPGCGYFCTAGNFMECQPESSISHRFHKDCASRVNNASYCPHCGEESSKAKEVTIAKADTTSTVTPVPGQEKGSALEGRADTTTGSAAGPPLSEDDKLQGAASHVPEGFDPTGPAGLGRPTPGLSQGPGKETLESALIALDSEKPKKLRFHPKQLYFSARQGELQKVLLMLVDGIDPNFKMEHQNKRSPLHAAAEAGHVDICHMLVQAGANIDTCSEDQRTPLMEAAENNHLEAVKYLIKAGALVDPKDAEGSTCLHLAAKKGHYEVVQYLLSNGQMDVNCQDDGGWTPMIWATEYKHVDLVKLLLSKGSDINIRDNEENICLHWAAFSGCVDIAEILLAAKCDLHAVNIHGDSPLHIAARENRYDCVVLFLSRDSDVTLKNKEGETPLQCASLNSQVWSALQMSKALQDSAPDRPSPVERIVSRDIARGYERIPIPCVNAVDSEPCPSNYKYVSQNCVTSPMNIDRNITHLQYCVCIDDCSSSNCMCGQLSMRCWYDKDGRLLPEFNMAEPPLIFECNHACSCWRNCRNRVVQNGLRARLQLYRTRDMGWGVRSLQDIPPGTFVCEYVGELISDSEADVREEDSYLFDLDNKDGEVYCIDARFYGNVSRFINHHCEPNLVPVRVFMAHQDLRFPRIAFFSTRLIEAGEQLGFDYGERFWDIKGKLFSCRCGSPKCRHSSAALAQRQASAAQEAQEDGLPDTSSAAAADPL

[2] = target: T2, human EHMT2 913-1193 (Homo sapiens, UniProt Q96KQ7); experiment: EHMT2 enzyme assay on histone peptide substrate (EHMT2 PEP); format: biochemical; conditions: Table II; read-out: EHMT2 PEP (IC50 μM)
T2 construct: recombinant purified human EHMT2 913-1193, Viva; purchased Viva
T2 sequence (Q96KQ7 913-1193): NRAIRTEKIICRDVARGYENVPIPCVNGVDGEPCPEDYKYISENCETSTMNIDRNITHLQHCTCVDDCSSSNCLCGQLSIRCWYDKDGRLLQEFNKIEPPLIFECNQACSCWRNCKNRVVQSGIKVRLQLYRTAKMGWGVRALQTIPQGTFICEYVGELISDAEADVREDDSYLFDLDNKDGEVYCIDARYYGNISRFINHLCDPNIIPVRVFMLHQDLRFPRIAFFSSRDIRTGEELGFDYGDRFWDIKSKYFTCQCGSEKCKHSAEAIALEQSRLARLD
Experimental: Recombinant purified human EHMT2 913-1193 (55 μM) synthesized by Viva was used for all experiments. Biotinylated histone peptides were synthesized by Biopeptide and HPLC-purified to >95% purity. Streptavidin Flashplates and seals were purchased from PerkinElmer and 384 Well V-bottom Polypropylene Plates were from Greiner. ^3H-labeled S-adenosylmethionine (^3H-SAM) was obtained from American Radiolabeled Chemicals with a specific activity of 80 Ci/mmol. Unlabeled SAM and S-adenosylhomocysteine (SAH) were obtained from American Radiolabeled Chemicals and Sigma-Aldrich respectively. Flashplates were washed in a Biotek ELx-405 with 0.1% Tween. 384-well Flashplates and 96-well filter binding plates were read on a TopCount microplate reader (PerkinElmer). Compound serial dilutions were performed on a Freedom EVO (Tecan) and spotted into assay plates using a Thermo Scientific Matrix PlateMate (Thermo Scientific). Reagent cocktails were added by Multidrop Combi (Thermo Scientific).
General Procedure for EHMT2 Enzyme Assay on Histone Peptide Substrate.
10-point curves of test compounds were made on a Freedom EVO (Tecan) using serial 3-fold dilutions in DMSO, beginning at 2.5 mM (final top concentration of compound was 50 μM and the DMSO was 2%). A 1 μL aliquot of the inhibitor dilution series was spotted in a polypropylene 384-well V-bottom plate (Greiner) using a Thermo Scientific Matrix PlateMate (Thermo Scientific). […] Compounds were incubated for 30 minutes with 40 μL per well of 0.031 nM EHMT2 (recombinant purified human EHMT2 913-1193, Viva) in 1× assay buffer (20 mM Bicine [pH 7.5], 0.002% Tween 20, 0.005% Bovine Skin Gelatin and 1 mM TCEP). […] Reactions were incubated for 60 minutes at room temperature and quenched with 10 μL per well of 400 μM unlabeled SAM, then transferred to a 384-well streptavidin Flashplate (PerkinElmer) and washed in a Biotek ELx-405 well washer with 0.1% Tween after 60 minutes. 384-well Flashplates were read on a TopCount microplate reader (PerkinElmer).

## COc1ccc(Nc2ccnc(NCC3CCNCC3)c2)cc1OCCCN1CCCC1 [Compound 11, N^4-(4-methoxy-3-(3-(pyrrolidin-1-yl)propoxy)phenyl)-N^2-(piperidin-4-ylmethyl)pyridine-2,4-diamine]
[1]
  IC50: < 0.1 µM
[2]
  IC50: < 0.1 µM

## CCCCNc1nccc(NC2CCCCC2)n1 [Compound 58]
[1]
  IC50: > 10 µM
[2]
  IC50: > 10 µM

## CCCCNc1nccc(NCC2CCOCC2)n1 [Compound 59]
[1]
  IC50: > 10 µM
[2]
  IC50: > 10 µM

## CCCCNc1nccc(NCC2CCNCC2)n1 [Compound 60]
[1]
  IC50: 1 to 10 µM
[2]
  IC50: 1 to 10 µM

## CCCCNc1nccc(NCC2CCCCC2)n1 [Compound 61]
[1]
  IC50: > 10 µM
[2]
  IC50: > 10 µM

## CCCCNc1nccc(NCC2CCOC2)n1 (stereo not shown) [Compound 62]
[1]
  IC50: > 10 µM
[2]
  IC50: > 10 µM

## CCCCNc1nccc(NC2CCOCC2)n1 [Compound 63]
[1]
  IC50: > 10 µM
[2]
  IC50: > 10 µM

## CCCCNc1nccc(NC2CCNCC2)n1 [Compound 64]
[1]
  IC50: > 10 µM
[2]
  IC50: > 10 µM

## CCCCNc1nccc(NC2CCN(C(C)=O)CC2)n1 [Compound 65]
[1]
  IC50: > 10 µM
[2]
  IC50: > 10 µM

## CCCCNc1nccc(NCC2CCN(C(C)=O)CC2)n1 [Compound 66]
[1]
  IC50: > 10 µM
[2]
  IC50: > 10 µM

## CCCCNc1nccc(NCC2CCCO2)n1 (stereo not shown) [Compound 67]
[1]
  IC50: > 10 µM
[2]
  IC50: > 10 µM

## CCCCNc1nccc(NCC2CCC(N)CC2)n1 (stereo not shown) [Compound 68]
[1]
  IC50: > 10 µM
[2]
  IC50: > 10 µM

## CCCCNc1nccc(NCC2CCC(NC(C)=O)CC2)n1 (stereo not shown) [Compound 69]
[1]
  IC50: > 10 µM
[2]
  IC50: > 10 µM

## CCCCNc1nccc(NC2CCC(N)CC2)n1 (stereo not shown) [Compound 70]
[1]
  IC50: > 10 µM
[2]
  IC50: > 10 µM

## CCCCNc1nccc(NC2CCC(NC(C)=O)CC2)n1 (stereo not shown) [Compound 71]
[1]
  IC50: > 10 µM
[2]
  IC50: > 10 µM

## CCCCNc1ccnc(NCCCC)n1 [Compound 72]
[1]
  IC50: > 10 µM
[2]
  IC50: > 10 µM

## CCCCNc1ccnc(NCCCN2CCCC2)n1 [Compound 73]
[1]
  IC50: > 10 µM
[2]
  IC50: > 10 µM

## CCCCNc1nccc(NCCCN2CCCC2)n1 [Compound 74]
[1]
  IC50: > 10 µM
[2]
  IC50: > 10 µM

## COCCNc1nccc(N)n1 [Compound 75]
[1]
  IC50: > 10 µM
[2]
  IC50: > 10 µM

## CCCCNc1nccc(NCCCN(C)C)n1 [Compound 76]
[1]
  IC50: > 10 µM
[2]
  IC50: > 10 µM

## CCCCNc1ccnc(NCCCN)n1 [Compound 77]
[1]
  IC50: > 10 µM
[2]
  IC50: > 10 µM

## CCCCNc1ccnc(NCCCN(C)C)n1 [Compound 78]
[1]
  IC50: > 10 µM
[2]
  IC50: > 10 µM

## CCCCNc1nccc(NCCCN)n1 [Compound 79]
[1]
  IC50: 1 to 10 µM
[2]
  IC50: > 10 µM

## CCCCNc1nccc(C(N)=O)n1 [Compound 80]
[1]
  IC50: > 10 µM
[2]
  IC50: > 10 µM

## CCCCNc1nccc(C(=O)NC2CCOCC2)n1 [Compound 81]
[1]
  IC50: > 10 µM
[2]
  IC50: > 10 µM

## CCCCNc1ncc(-c2ccccc2)c(N)n1 [Compound 82]
[1]
  IC50: > 10 µM
[2]
  IC50: > 10 µM

## CCCCNc1ncc(C#N)c(NCC2CCNCC2)n1 [Compound 83]
[1]
  IC50: > 10 µM
[2]
  IC50: > 10 µM

## CCCCNc1nc(NCC2CCNCC2)ncc1C#N [Compound 84]
[1]
  IC50: > 10 µM
[2]
  IC50: > 10 µM

## CCCCNc1nc(NCC2CCNCC2)cc(C(N)=O)n1 [Compound 85]
[1]
  IC50: > 10 µM
[2]
  IC50: > 10 µM

## CCCCNc1nc(C)cc(NCC2CCNCC2)n1 [Compound 86]
[1]
  IC50: 1 to 10 µM
[2]
  IC50: 1 to 10 µM

## CCCCNc1ccnc(NCC2CCN(C)CC2)n1 [Compound 87]
[1]
  IC50: 1 to 10 µM
[2]
  IC50: 1 to 10 µM

## CCCCNc1ncc(C(N)=O)c(NCC2CCNCC2)n1 [Compound 89]
[1]
  IC50: > 10 µM
[2]
  IC50: > 10 µM

## CCCCNc1ncc(C)c(NCC2CCNCC2)n1 [Compound 91]
[1]
  IC50: 1 to 10 µM
[2]
  IC50: > 10 µM

## O=C(NCCNc1ccnc(NCC2CCNCC2)n1)c1ccc2c(c1)OC(F)(F)O2 [Compound 92]
[1]
  IC50: > 10 µM
[2]
  IC50: > 10 µM

## O=C(NCCNc1ccnc(NCC2CCNCC2)n1)c1cn(C2CC2)nn1 [Compound 93]
[1]
  IC50: > 10 µM
[2]
  IC50: > 10 µM
